Data taken from ChEMBL document CHEMBL1201862, “PubChem BioAssay data set” (2004).
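Following 48 hours of exposure in 96-well plates, responses at five concentrations were used to interpolate endpoints linearly. The concentration for 50% growth inhibition is given as GI50.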 The source made the active and inactive calls. Rule as the data show it: active = GI50 up to about 1.1 µM and inactive = higher.

Legend:
Experiment in all cases: NCI tumour cell line growth inhibition, 48 h
M19-MEL = system: M19-MEL
U-251 = system: U-251
SF-268 = system: SF-268
786-0 = system: 786-0
HT-29 = system: HT-29
HL-60 = system: HL-60
KM-20L2 = system: KM-20L2
UACC-257 = system: UACC-257
Malme-3M = system: Malme-3M
DMS-114 = system: DMS-114
MOLT-4 = system: MOLT-4
HOP-92 = system: HOP-92
OVCAR-4 = system: OVCAR-4
NCI-H522 = system: NCI-H522
RPMI-8226 = system: RPMI-8226
SW-620 = system: SW-620
UACC-62 = system: UACC-62
SN12C = system: SN12C
NCI-H226 = system: NCI-H226
DLD-1 = system: DLD-1
SNB-19 = system: SNB-19
SK-MEL-2 = system: SK-MEL-2
K562 = system: K562
COLO 205 = system: COLO 205
SF-539 = system: SF-539
NCI-H23 = system: NCI-H23
IGROV-1 = system: IGROV-1
RXF 393 = system: RXF 393
SR = system: SR
HCT-15 = system: HCT-15
HCC 2998 = system: HCC 2998
KM12 = system: KM12
OVCAR-3 = system: OVCAR-3
TK-10 = system: TK-10
A549 = system: A549
EKVX = system: EKVX
HOP-62 = system: HOP-62
ACHN = system: ACHN
XF498 = system: XF498
CAKI-1 = system: CAKI-1
CCRF-CEM = system: CCRF-CEM
OVCAR-8 = system: OVCAR-8
SNB-75 = system: SNB-75
HCT-116 = system: HCT-116
M14 = system: M14
RXF 631 = system: RXF 631
SK-MEL-28 = system: SK-MEL-28
NCI-H460 = system: NCI-H460
DMS-273 = system: DMS-273
SF-295 = system: SF-295
UO-31 = system: UO-31
LXFL 529 = system: LXFL 529
SK-MEL-5 = system: SK-MEL-5
A498 = system: A498
SK-OV-3 = system: SK-OV-3
SNB-78 = system: SNB-78
OVCAR-5 = system: OVCAR-5

With `O=C1c2ccccc2C(=O)c2[nH]c(Cc3ccc(F)cc3)nc21` the GI50 (M19-MEL) was 16.9 µM (inactive), the GI50 (U-251) was 22.6 µM (inactive) and the GI50 (SF-268) was 21.8 µM (inactive). For the same compound, the GI50 (786-0) was 16.9 µM (inactive), the GI50 (HT-29) was 15.9 µM (inactive) and the GI50 (HL-60) was 17.9 µM (inactive). The GI50 (KM-20L2) was 17.1 µM (inactive), the GI50 (UACC-257) was 16.3 µM (inactive) and the GI50 (Malme-3M) was 14.5 µM (inactive). For the same compound, the GI50 (DMS-114) was > 10 µM (inactive), the GI50 (MOLT-4) was 24.8 µM (inactive) and the GI50 (HOP-92) was 19.9 µM (inactive). For the same compound, the GI50 (OVCAR-4) was 14.8 µM (inactive), the GI50 (NCI-H522) was 14.5 µM (inactive) and the GI50 (RPMI-8226) was 22.8 µM (inactive). The GI50 (SW-620) was 14.5 µM (inactive), the GI50 (UACC-62) was 15.5 µM (inactive) and the GI50 (SN12C) was 22 µM (inactive). The GI50 (NCI-H226) was 22.8 µM (inactive), the GI50 (DLD-1) was 4.01 µM (inactive) and the GI50 (SNB-19) was 24.4 µM (inactive). The GI50 (SK-MEL-2) was 13.9 µM (inactive), the GI50 (K562) was 37.2 µM (inactive) and the GI50 (COLO 205) was 22.1 µM (inactive). For the same compound, the GI50 (SF-539) was 17.8 µM (inactive), the GI50 (NCI-H23) was > 10 µM (inactive) and the GI50 (IGROV-1) was 12.5 µM (inactive). The GI50 (RXF 393) was 6.97 µM (inactive), the GI50 (SR) was 21.6 µM (inactive) and the GI50 (HCT-15) was 6.44 µM. The GI50 (HCC 2998) was 26.2 µM (inactive), the GI50 (KM12) was 16.2 µM (inactive) and the GI50 (OVCAR-3) was 5.4 µM (inactive). For the same compound, the GI50 (TK-10) was 34.1 µM (inactive), the GI50 (A549) was 19.5 µM (inactive) and the GI50 (EKVX) was 19.2 µM (inactive). The GI50 (HOP-62) was 21.9 µM (inactive), the GI50 (ACHN) was 14.2 µM (inactive) and the GI50 (XF498) was 17.2 µM (inactive). The GI50 (CAKI-1) was 19.7 µM (inactive), the GI50 (CCRF-CEM) was 24.6 µM (inactive) and the GI50 (OVCAR-8) was 17.4 µM (inactive). For the same compound, the GI50 (SNB-75) was 20.9 µM (inactive), the GI50 (HCT-116) was 19.5 µM (inactive) and the GI50 (M14) was 15.3 µM (inactive). For the same compound, the GI50 (RXF 631) was 15.9 µM (inactive), the GI50 (SK-MEL-28) was 18.7 µM (inactive) and the GI50 (NCI-H460) was 15.2 µM (inactive). The GI50 (DMS-273) was 18.1 µM (inactive), the GI50 (SF-295) was 16.7 µM (inactive) and the GI50 (UO-31) was 29.6 µM (inactive). The GI50 (LXFL 529) was 26.4 µM (inactive).
`COc1ccc(/C=C(/C(=O)O)c2cc(OC)c(OC)c(OC)c2)cc1` was tested, and the GI50 (M19-MEL) was 79.8 µM (inactive), the GI50 (U-251) was 35.2 µM (inactive) and the GI50 (SF-268) was 70.1 µM (inactive). The GI50 (786-0) was 41.3 µM (inactive), the GI50 (HT-29) was 42.1 µM (inactive) and the GI50 (KM-20L2) was 22.2 µM (inactive). The GI50 (UACC-257) was 31.5 µM (inactive), the GI50 (SK-MEL-5) was 41.1 µM (inactive) and the GI50 (Malme-3M) was 30.1 µM (inactive). The GI50 (A498) was 52.4 µM (inactive), the GI50 (DMS-114) was 40.2 µM (inactive) and the GI50 (MOLT-4) was 45.4 µM (inactive). The GI50 (HOP-92) was > 100 µM (inactive), the GI50 (OVCAR-4) was 41.4 µM (inactive) and the GI50 (NCI-H522) was 16.8 µM (inactive). The GI50 (RPMI-8226) was 33.8 µM (inactive), the GI50 (SK-OV-3) was > 100 µM (inactive) and the GI50 (SW-620) was 61 µM (inactive). For the same compound, the GI50 (UACC-62) was 43.6 µM (inactive), the GI50 (SN12C) was 46.9 µM (inactive) and the GI50 (NCI-H226) was 44.8 µM (inactive). For the same compound, the GI50 (DLD-1) was 41.2 µM (inactive), the GI50 (SNB-19) was 59.4 µM (inactive) and the GI50 (SK-MEL-2) was 47.5 µM (inactive). The GI50 (K562) was 38.5 µM (inactive), the GI50 (COLO 205) was 33.3 µM (inactive) and the GI50 (SF-539) was 19.3 µM (inactive). The GI50 (NCI-H23) was 27.2 µM (inactive), the GI50 (IGROV-1) was > 100 µM (inactive) and the GI50 (SR) was 43.3 µM (inactive). For the same compound, the GI50 (HCC 2998) was > 100 µM (inactive), the GI50 (KM12) was 63 µM (inactive) and the GI50 (OVCAR-3) was 23.7 µM (inactive). The GI50 (A549) was 56.1 µM (inactive), the GI50 (EKVX) was > 100 µM (inactive) and the GI50 (HOP-62) was 35 µM (inactive). For the same compound, the GI50 (ACHN) was > 100 µM (inactive), the GI50 (CAKI-1) was 44.9 µM (inactive) and the GI50 (SNB-78) was 35.8 µM (inactive). The GI50 (CCRF-CEM) was 43.1 µM (inactive), the GI50 (OVCAR-5) was > 100 µM (inactive) and the GI50 (OVCAR-8) was 63.5 µM (inactive). The GI50 (SNB-75) was 21.6 µM (inactive), the GI50 (HCT-116) was 53.3 µM (inactive) and the GI50 (M14) was 24.2 µM (inactive). The GI50 (RXF 631) was 46.8 µM (inactive), the GI50 (SK-MEL-28) was 61.9 µM (inactive) and the GI50 (NCI-H460) was 48.1 µM (inactive). For the same compound, the GI50 (DMS-273) was 31.6 µM (inactive), the GI50 (UO-31) was 39.5 µM (inactive) and the GI50 (LXFL 529) was 69.2 µM (inactive).
